The results in this text go back to patent US20260317324A1, “BIFUNCTIONAL COMPOUNDS FOR DEGRADING BRAF VIA UBIQUITIN PROTEOSOME PATHWAY” (Nurix Therapeutics, Inc., priority 2023, published 2026).

Common to all, as to assay type: cell-based
Experiment [1] concerns the target T1, BRAF V600E (Homo sapiens, UniProt P15056, V600E).
T1 construct: endogenous C-terminal HiBiT fusion tag on BRAF V600E allele; endogenous in cells; host or cells: A375 clone 1F10 (CRISPR-Cas9 knock-in of the HiBiT tag; parental A375 from ATCC)
The experiment can be described thus: BRAF HiBiT degradation assay, C-terminal HiBiT-tagged BRAF V600E A375 cells (clone 1F10), Nano-Glo HiBiT Lytic assay. As to conditions: for Dmax: A-375. The gist of the method: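 Endogenous BRAF V600E-HiBiT A375 (1F10), 10,000 cells/well, 24 h preculture; cpd 11-pt, 1 μM–0.01 nM half-log, n=2, 0.2% DMSO; HiBiT lytic detection 10 min RT; DC50 = fitted conc at Y=50; Obs. Dmax vs DMSO.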
In general terms: HiBiT is a short tag that completes a luciferase, so light tracks the accessible tagged protein.

Experiment [2] has as its target T2, BRAF G466V (Homo sapiens, UniProt P15056, G466V).
T2 construct: Horizon Discovery (HCT-116 BRAF−/− cells); host or cells: HCT-116 BRAF−/− cells, clone 8, lentiviral transduction
Kind of experiment: BRAF HiBiT degradation assay, C-terminal HiBiT-tagged BRAF G466V overexpressed in HCT-116 BRAF−/− cells (clone 8), Nano-Glo HiBiT Lytic assay. In outline: (§1)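 Luminescence from the lytic HiBiT reagent, read after 10 min at room temperature, measured tagged BRAF remaining in lentivirally transduced HCT-116 BRAF−/− cells. Compounds were tested from 1 μM to 0.01 nM in half-log steps at 0.2% DMSO. DC50 values were fitted at 50% remaining.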

In experiment [3] the target is T3, BRAF G469A (Homo sapiens, UniProt P15056, G469A).
T3 construct: Horizon Discovery (HCT-116 BRAF−/− cells); host or cells: HCT-116 BRAF−/− cells, clone 34, lentiviral transduction
T3 sequence (P15056 whole entry G469A): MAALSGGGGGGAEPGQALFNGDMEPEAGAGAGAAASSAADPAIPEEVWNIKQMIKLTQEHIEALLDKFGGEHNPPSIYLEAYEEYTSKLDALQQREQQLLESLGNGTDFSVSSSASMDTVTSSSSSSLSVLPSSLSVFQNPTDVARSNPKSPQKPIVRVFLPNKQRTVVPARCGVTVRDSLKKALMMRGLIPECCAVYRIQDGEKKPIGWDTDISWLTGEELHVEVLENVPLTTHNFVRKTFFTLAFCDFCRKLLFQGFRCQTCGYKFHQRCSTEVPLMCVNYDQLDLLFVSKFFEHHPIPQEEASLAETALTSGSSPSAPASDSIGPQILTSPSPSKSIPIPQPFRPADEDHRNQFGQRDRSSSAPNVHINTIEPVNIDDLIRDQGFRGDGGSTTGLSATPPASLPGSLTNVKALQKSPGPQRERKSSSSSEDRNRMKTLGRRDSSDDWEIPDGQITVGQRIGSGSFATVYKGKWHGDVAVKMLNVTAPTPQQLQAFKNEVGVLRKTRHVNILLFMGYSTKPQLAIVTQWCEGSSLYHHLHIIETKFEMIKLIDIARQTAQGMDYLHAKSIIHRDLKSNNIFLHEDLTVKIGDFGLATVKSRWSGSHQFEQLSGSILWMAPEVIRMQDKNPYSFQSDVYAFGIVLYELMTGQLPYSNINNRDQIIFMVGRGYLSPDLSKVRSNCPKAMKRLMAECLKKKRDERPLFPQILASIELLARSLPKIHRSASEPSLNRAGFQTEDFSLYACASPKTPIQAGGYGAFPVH
Kind of experiment: BRAF HiBiT degradation assay, C-terminal HiBiT-tagged BRAF G469A overexpressed in HCT-116 BRAF−/− cells (clone 34), Nano-Glo HiBiT Lytic assay. The gist of the method:
as §1

The target in experiment [4] is T4, BRAF D594G (Homo sapiens, UniProt P15056, D594G).
T4 construct: Horizon Discovery (HCT-116 BRAF−/− cells); host or cells: HCT-116 BRAF−/− cells, clone 63, lentiviral transduction
T4 sequence (P15056 whole entry D594G): as the sequence (P15056 whole entry G469A) above, with A469G, D594G counted along it
Kind of experiment: BRAF HiBiT degradation assay, C-terminal HiBiT-tagged BRAF D594G overexpressed in HCT-116 BRAF−/− cells (clone 63), Nano-Glo HiBiT Lytic assay. The gist of the method: as §1

Setting [5] is: A375 (BRAF V600E), DC50 at 50%: fitted conc. at Y=50.
Where [6] appears, read: A375 (BRAF V600E), percentage protein degraded at maximal compound effect relative to DMSO.
Setting [7] is: BRAF G466V, DC50 at 50%: fitted conc. at Y=50.
Where [8] appears, read: HCT-116, BRAF G466V, percentage protein degraded at maximal compound effect relative to DMSO.
Setting [9] is: Class 2, BRAF G469A, DC50 at 50%: fitted conc. at Y=50.
The mark [10] stands for this setting: HCT-116, Class 2, BRAF G469A, percentage protein degraded at maximal compound effect relative to DMSO.
Where [11] appears, read: BRAF D594G, DC50 at 50%: fitted conc. at Y=50.
Where [12] appears, read: HCT-116, BRAF D594G, percentage protein degraded at maximal compound effect relative to DMSO.
Where [13] appears, read: A375 (BRAF V600E, Class 1), DC50 at 50% degradation.
Where [14] appears, read: A375 (BRAF V600E, Class 1), observed Dmax, % protein degraded relative to DMSO control.
The mark [15] stands for this setting: BRAF G466V (Class 3), HCT-116 BRAF−/− cells, DC50 at 50% degradation.
Setting [16] is: BRAF G466V (Class 3), HCT-116 BRAF−/− cells, observed Dmax relative to DMSO control.
Setting [17] is: BRAF G469A (Class 2), HCT-116 BRAF−/− cells, DC50 at 50% degradation.
Setting [18] is: BRAF G469A (Class 2), HCT-116 BRAF−/− cells, observed Dmax relative to DMSO control.
Where [19] appears, read: BRAF D594G (Class 3), HCT-116 BRAF−/− cells, DC50 at 50% degradation.
The mark [20] stands for this setting: BRAF D594G (Class 3), HCT-116 BRAF−/− cells, observed Dmax relative to DMSO control.

Bounds are passed on as bounds.

T2 sequence (P15056 whole entry G466V): as the sequence (P15056 whole entry G469A) above, with G466V, A469G counted along it
T1 sequence (P15056 whole entry V600E, the tested form may be a part): as the sequence (P15056 whole entry G469A) above, with A469G, V600E counted along it

`CCCS(=O)(=O)Nc1cccc(-c2nc(C(C)(C)C)sc2-c2ccnc(Nc3ccc(C4CCN(CC5CCN(c6ccc([C@H]7CCC(=O)NC7=O)cc6)CC5)CC4)cc3)n2)c1F` [Compound 89, N-[3-(2-tert-butyl-5-{2-[(4-{1-[(1-{4-[(3R)-2,6-dioxopiperidin-3-yl]phenyl}piperidin-4-yl)methyl]piperidin-4-yl}phenyl)amino]pyrimidin-4-yl}-1,3-thiazol-4-yl)-2-fluorophenyl]propane-1-sulfonamide]: the DC50 in experiment [1] (setting [5]) was 0.01 to 0.05 µM; in experiment [2] (setting [7]) it was greater than 0.5 µM; in experiment [3] (setting [9]) it was greater than 0.5 µM; in experiment [4] (setting [11]), greater than 0.5 µM. The Dmax in experiment [1] (setting [6]) was greater than 70%; in experiment [2] (setting [8]), 30 to 70%; in experiment [3] (setting [10]), 30 to 70%; in experiment [4] (setting [12]), 30 to 70%.

With `O=C1CCC(N2C(=O)c3ccc(N4CC(CN5CC(c6ccc(-n7cc(-c8ccc9c(c8)CC/C9=N/O)c(-c8ccncc8)n7)cc6)C5)C4)cc3C2=O)C(=O)N1` (racemic) [Compound 262, Rac-2-[(3R)-2,6-dioxopiperidin-3-yl]-5-(3-{[3-(4-{4-[(1Z)-1-(hydroxyimino)-2,3-dihydro-1H-inden-5-yl]-3-(pyridin-4-yl)-1H-pyrazol-1-yl}phenyl)azetidin-1-yl]methyl}azetidin-1-yl)-2,3-dihydro-1H-isoindole-1,3-dione], the DC50 was less than 0.01 µM in experiment [1] (setting [13]), greater than 0.5 µM in experiment [2] (setting [15]), greater than 0.5 µM in experiment [3] (setting [17]) and greater than 0.5 µM in experiment [4] (setting [19]). Moreover, the Dmax in experiment [1] (setting [14]) was greater than 70%; in experiment [2] (setting [16]), less than 30%; in experiment [3] (setting [18]), less than 30%; in experiment [4] (setting [20]), less than 30%.

In the case of `CCN(C)S(=O)(=O)Nc1cccc(-c2nc(C)sc2-c2ccnc(Nc3ccc(N4CCN(CC5CCN(c6ccc(C7CCC(=O)NC7=O)cn6)CC5)CC4)cn3)n2)c1F` (racemic) [Compound 43, Rac-(3S)-3-{6-[4-({4-[6-({4-[4-(3-{[ethyl(methyl)sulfamoyl]amino}-2-fluorophenyl)-2-methyl-1,3-thiazol-5-yl]pyrimidin-2-yl}amino)pyridin-3-yl]piperazin-1-yl}methyl)piperidin-1-yl]pyridin-3-yl}piperidine-2,6-dione], the DC50 in experiment [1] (setting [5]) is less than 0.01 µM; in experiment [2] (setting [7]), 0.01 to 0.05 µM; in experiment [3] (setting [9]), 0.01 to 0.05 µM; in experiment [4] (setting [11]), less than 0.01 µM. Besides, the Dmax in experiment [1] (setting [6]) is greater than 70%; in experiment [2] (setting [8]), 30 to 70%; in experiment [3] (setting [10]), 30 to 70%; in experiment [4] (setting [12]), 30 to 70%.

Take `O=C1CCC(c2c(F)cc(N3CCC(CN4CCN(c5ccc(-n6cc(-c7cc(Cl)cc(NS(=O)(=O)N8CCCC8)c7F)c(-c7ccncc7)n6)cc5)CC4)CC3)cc2F)C(=O)N1` (racemic) [Compound 387, Rac-N-{5-chloro-3-[1-(4-{4-[(1-{4-[(3R)-2,6-dioxopiperidin-3-yl]-3,5-difluorophenyl}piperidin-4-yl)methyl]piperazin-1-yl}phenyl)-3-(pyridin-4-yl)-1H-pyrazol-4-yl]-2-fluorophenyl}pyrrolidine-1-sulfonamide]: the DC50 is 0.01 to 0.05 µM in experiment [1] (setting [13]), less than 0.01 µM in experiment [2] (setting [15]), 0.01 to 0.05 µM in experiment [3] (setting [17]) and less than 0.01 µM in experiment [4] (setting [19]). Besides, the Dmax in experiment [1] (setting [14]) was greater than 70%; in experiment [2] (setting [16]), greater than 70%; in experiment [3] (setting [18]), 30 to 70%; in experiment [4] (setting [20]), 30 to 70%.

As to `O=C1CCN(c2ccc(N3CCC(CN4CCN(c5ccc(-n6cc(-c7cc(Cl)cc(NS(=O)(=O)N8CCCC8)c7F)c(-c7ccncc7)n6)c(F)c5)CC4)CC3)nc2)C(=O)N1` [Compound 370, N-[5-chloro-3-(1-{4-[4-({1-[5-(2,4-dioxo-1,3-diazinan-1-yl)pyridin-2-yl]piperidin-4-yl}methyl)piperazin-1-yl]-2-fluorophenyl}-3-(pyridin-4-yl)-1H-pyrazol-4-yl)-2-fluorophenyl]pyrrolidine-1-sulfonamide], the DC50 is less than 0.01 µM in experiment [1] (setting [13]), less than 0.01 µM in experiment [2] (setting [15]), greater than 0.5 µM in experiment [3] (setting [17]) and less than 0.01 µM in experiment [4] (setting [19]). For the same compound, the maximal degradation (Dmax) in experiment [1] (setting [14]) was greater than 70%; in experiment [2] (setting [16]), 30 to 70%; in experiment [3] (setting [18]), 30 to 70%; in experiment [4] (setting [20]), 30 to 70%.

As for `CCCS(=O)(=O)Nc1cccc(-c2cn(-c3ccc(N4CCN(CC5CCN(c6ccc([C@@H]7CCC(=O)NC7=O)cc6)CC5)CC4)nc3)nc2-c2ccncc2)c1F` [Compound 4, N-{3-[1-(6-{4-[(1-{4-[(3S)-2,6-dioxopiperidin-3-yl]phenyl}piperidin-4-yl)methyl]piperazin-1-yl}pyridin-3-yl)-3-(pyridin-4-yl)-1H-pyrazol-4-yl]-2-fluorophenyl}propane-1-sulfonamide], the DC50 in experiment [1] (setting [5]) was 0.01 to 0.05 µM; in experiment [2] (setting [7]) it was 0.01 to 0.05 µM; in experiment [3] (setting [9]), greater than 0.5 µM; in experiment [4] (setting [11]), greater than 0.5 µM. In addition, the Dmax in experiment [1] (setting [6]) is greater than 70%; in experiment [2] (setting [8]) it was 30 to 70%; in experiment [3] (setting [10]), less than 30%; in experiment [4] (setting [12]), 30 to 70%.

Turning to `O=C1CCN(c2ccc(N3CCC(CN4CCN(c5ccc(-n6cc(-c7cc(C(F)F)cc(NS(=O)(=O)N8CCCC8)c7F)c(-c7ccncc7)n6)c(F)c5)CC4)CC3)cc2)C(=O)N1` [Compound 356, N-[5-(difluoromethyl)-3-(1-{4-[4-({1-[4-(2,4-dioxo-1,3-diazinan-1-yl)phenyl]piperidin-4-yl}methyl)piperazin-1-yl]-2-fluorophenyl}-3-(pyridin-4-yl)-1H-pyrazol-4-yl)-2-fluorophenyl]pyrrolidine-1-sulfonamide], the DC50 in experiment [1] (setting [13]) is 0.01 to 0.05 µM; in experiment [2] (setting [15]), 0.01 to 0.05 µM; in experiment [3] (setting [17]) it was greater than 0.5 µM; in experiment [4] (setting [19]), greater than 0.5 µM. Besides, the Dmax is greater than 70% in experiment [1] (setting [14]), 30 to 70% in experiment [2] (setting [16]), less than 30% in experiment [3] (setting [18]) and 30 to 70% in experiment [4] (setting [20]).

In the case of `O=C1CCC(c2ccc(N3CCC(CN4CCN(c5ccc(-n6cc(-c7cc(Cl)cc(NS(=O)(=O)N8CCCC8)c7F)c(-c7ccncc7)n6)cc5)CC4)CC3)nc2)C(=O)N1` (racemic) [Compound 265, Rac-(R)—N-(5-chloro-3-(1-(4-(4-((1-(5-(2,6-dioxopiperidin-3-yl)pyridin-2-yl)piperidin-4-yl)methyl)piperazin-1-yl)phenyl)-3-(pyridin-4-yl)-1H-pyrazol-4-yl)-2-fluorophenyl)pyrrolidine-1-sulfonamide], the DC50 in experiment [1] (setting [13]), in experiment [2] (setting [15]), in experiment [3] (setting [17]) and in experiment [4] (setting [19]) was less than 0.01 µM each time. The Dmax in experiment [1] (setting [14]), in experiment [2] (setting [16]), in experiment [3] (setting [18]) and in experiment [4] (setting [20]) was greater than 70% throughout.

`O=C1CCN(c2ccc(N3CCC(CN4CCN(c5ccc(-n6cc(-c7cc(Cl)cc(NS(=O)(=O)N8CC[C@@H](F)C8)c7F)c(-c7ccncc7)n6)nc5)CC4)CC3)cc2)C(=O)N1` [Compound 295, (3R)—N-[5-chloro-3-(1-{5-[4-({1-[4-(2,4-dioxo-1,3-diazinan-1-yl)phenyl]piperidin-4-yl}methyl)piperazin-1-yl]pyridin-2-yl}-3-(pyridin-4-yl)-1H-pyrazol-4-yl)-2-fluorophenyl]-3-fluoropyrrolidine-1-sulfonamide]: the DC50 in experiment [1] (setting [13]) is less than 0.01 µM; in experiment [2] (setting [15]) it was less than 0.01 µM; in experiment [3] (setting [17]), 0.05 to 0.5 µM; in experiment [4] (setting [19]), less than 0.01 µM. For the same compound, the Dmax is greater than 70% in experiment [1] (setting [14]), 30 to 70% in experiment [2] (setting [16]), 30 to 70% in experiment [3] (setting [18]) and 30 to 70% in experiment [4] (setting [20]).

The DC50 is the concentration giving 50% degradation. In general, Dmax refers to the greatest extent of degradation seen. A high value points to a fuller loss of target.
